Source: patent publication US20230339891A1, “URACIL DERIVATIVES AS MER-AXL INHIBITORS” (BRISTOL-MYERS SQUIBB COMPANY, priority 2018, published 2023)

Experiments:
GST-MERTK 578-872 = GST-MERTK 578-872 (Homo sapiens (Human), UniProt Q12866); experiment: MERTK kinase homogeneous time resolved fluorescence (HTRF) binding assay; details: 1 nM kinase, fluorescein-labeled kinase tracer at Kd, 60 minutes at room temperature; read-out: Mer HTRF IC50
Method: (§1) MERTK, AXL, TYRO3 Kinase Homogeneous Time Resolved Fluorescence (HTRF) Assay
(§2) Assays were performed in black, flat-bottom, 1536-well plates. The reactions were incubated at room temperature for 60 minutes, following which the HTRF signals, ratio of fluorescence intensities at emission wavelengths for fluorescein acceptor (520 nm) and terbium donor (495 nm), the 520/495 ratio, were measured on the Envision Plate reader. Inhibition data were calculated from the 520/495 ratio generated by the no protein control reactions for 100% inhibition and vehicle-only reactions for 0% inhibition, and dose response curves generated to determine the concentration required for inhibiting 50% of the HTRF signal (IC50). Compounds were dissolved at 10 mM in dimethylsulfoxide (DMSO) and evaluated at eleven concentrations.

HIS-AXL 473-End = HIS-AXL 473-End (Homo sapiens (Human), UniProt P30530); experiment: AXL kinase homogeneous time resolved fluorescence (HTRF) binding assay; details: 1 nM kinase, fluorescein-labeled kinase tracer at Kd, 60 minutes at room temperature
Method: as §1, §2

Sequence of GST-MERTK 578-872 (Q12866 578-872): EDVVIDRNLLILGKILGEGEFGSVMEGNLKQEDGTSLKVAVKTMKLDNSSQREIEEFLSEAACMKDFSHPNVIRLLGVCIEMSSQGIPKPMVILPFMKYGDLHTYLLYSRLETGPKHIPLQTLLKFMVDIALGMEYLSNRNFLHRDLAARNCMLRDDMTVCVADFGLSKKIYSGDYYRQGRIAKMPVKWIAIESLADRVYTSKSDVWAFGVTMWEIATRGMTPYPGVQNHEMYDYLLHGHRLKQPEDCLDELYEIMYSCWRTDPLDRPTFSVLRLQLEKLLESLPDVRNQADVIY
Sequence of HIS-AXL 473-End (P30530 473-894): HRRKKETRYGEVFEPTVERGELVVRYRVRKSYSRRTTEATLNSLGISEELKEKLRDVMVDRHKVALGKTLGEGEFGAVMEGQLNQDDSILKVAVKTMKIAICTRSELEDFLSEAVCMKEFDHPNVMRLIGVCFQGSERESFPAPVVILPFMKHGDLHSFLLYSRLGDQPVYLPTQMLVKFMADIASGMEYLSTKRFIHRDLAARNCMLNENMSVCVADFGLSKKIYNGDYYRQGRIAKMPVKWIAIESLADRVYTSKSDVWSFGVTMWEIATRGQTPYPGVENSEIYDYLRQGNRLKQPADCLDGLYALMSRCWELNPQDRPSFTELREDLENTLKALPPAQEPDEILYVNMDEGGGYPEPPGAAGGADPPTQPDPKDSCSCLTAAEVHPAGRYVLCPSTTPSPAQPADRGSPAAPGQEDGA

| Compound | IC50 (GST-MERTK 578-872) | IC50 (HIS-AXL 473-End) |
| --- | --- | --- |
| CC(C)n1cc(C(=O)Nc2ccc(Oc3ccnc(Nc4ccc(C(=O)NCC(C)(C)O)cn4)c3)c(F)c2)c(=O)n(-c2ccc(F)cc2)c1=O [Example 92, N-(3-Fluoro-4-{[2-({5-[(2-hydroxy-2-methylpropyl)carbamoyl]pyridin-2-yl}amino)pyridin-4-yl]oxy}phenyl)-3-(4-fluorophenyl)-2,4-dioxo-1-(propan-2-yl)-1,2,3,4-tetrahydropyrimidine-5-carboxamide] | 1.9 nM | 0.4 nM |
| CC(C)n1cc(C(=O)Nc2ccc(Oc3ccnc(Nc4ccc(C(=O)NCCN5CCOCC5)cn4)c3)c(F)c2)c(=O)n(-c2ccc(F)cc2)c1=O [Example 93] | 1.6 nM | 0.4 nM |
| CC(C)n1cc(C(=O)Nc2ccc(Oc3ccnc(Nc4ccc(C(=O)NCC(F)F)cn4)c3)c(F)c2)c(=O)n(-c2ccc(F)cc2)c1=O [Example 95] | 4.3 nM | 0.8 nM |
| CC(C)n1cc(C(=O)Nc2ccc(Oc3ccnc(Nc4ccnc(N5CCCC5)n4)c3)c(F)c2)c(=O)n(C23CC(C2)C3)c1=O [Example 104, 3-(Bicyclo[1.1.1]pentan-1-yl)-N-(3-fluoro-4-((2-((2-(pyrrolidin-1-yl)pyrimidin-4-yl)amino)pyridin-4-yl)oxy)phenyl)-1-isopropyl-2,4-dioxo-1,2,3,4-tetrahydropyrimidine-5-carboxamide] | 3.9 nM | 3.1 nM |
| O=C(Nc1ccc(Oc2ccnc(Nc3ccnc(N4CCCC4)n3)c2)c(F)c1)c1cn(C2CC2)c(=O)n(-c2ccc(F)cc2)c1=O [Example 105] | 1.4 nM | 2.3 nM |
| CC(C)n1cc(C(=O)Nc2ccc(Oc3ccnc(Nc4ccnc(N5CCCC5)n4)c3)c(F)c2)c(=O)n(Cc2ccccc2)c1=O [Example 106] | 8.2 nM | 8.2 nM |
| CC(C)Cn1c(=O)c(C(=O)Nc2ccc(Oc3ccnc(Nc4ccnc(N5CCCC5)n4)c3)c(F)c2)cn(C(C)C)c1=O [Example 107] | 5.4 nM | 11 nM |
| CC(C)n1cc(C(=O)Nc2ccc(Oc3ccnc(Nc4ccnc(N5CCCC5)n4)c3)c(F)c2)c(=O)n(C(C)C)c1=O [Example 108] | 9.1 nM | 3.8 nM |
| CC(C)n1cc(C(=O)Nc2ccc(Oc3ccnc(Nc4ccnc(N5CCCC5)n4)c3)c(F)c2)c(=O)n(C2CCCCC2)c1=O [Example 109] | 70 nM | 62 nM |
| CS(=O)(=O)C1CCN(c2nccc(Nc3cc(Oc4ccc(NC(=O)c5cn(C6CC6)c(=O)n(-c6ccc(F)cc6)c5=O)cc4F)ccn3)n2)CC1 [Example 112, 1-cyclopropyl-N-{3-fluoro-4-[(2-{[2-(4-methanesulfonylpipedidin-1-yl)pyrimidin-4-yl]amino}pyridin-4-yl)oxy]phenyl}-3-(4-fluorophenyl)-2,4-dioxo-1,2,3,4-tetrahydropyrimidine-5-carboxamide] | 4.1 nM | 0.8 nM |
| CC(C)n1cc(C(=O)Nc2ccc(Oc3ccnc(Nc4ccnc(N5CCC(S(C)(=O)=O)CC5)n4)c3)c(F)c2)c(=O)n(C23CC(C2)C3)c1=O [Example 113] | 2.8 nM | 4.8 nM |
| CC(C)n1cc(C(=O)Nc2ccc(Oc3ccnc(Nc4ccnc(N5CCC(S(C)(=O)=O)CC5)n4)c3)c(F)c2)c(=O)n(-c2ccc(F)cc2)c1=O [Example 114] | 1.4 nM | 0.6 nM |
| Cc1cnc(Nc2ccnc(N3CCC(S(C)(=O)=O)CC3)n2)cc1Oc1ccc(NC(=O)c2cn(C(C)C)c(=O)n(-c3ccccc3)c2=O)cc1 [Example 115, N-{4-[(2-{[2-(4-methanesulfonylpiperidin-1-yl)pyrimidin-4-yl]amino}-5-methylpyridin-4-yl)oxy]phenyl}-2,4-dioxo-3-phenyl-1-(propan-2-yl)-1,2,3,4-tetrahydropyrimidine-5-carboxamide] | 810 nM | 41 nM |
| CC(C)n1cc(C(=O)Nc2ccc(Oc3ccnc(Nc4ccc(C#N)c(N5CCCC5)n4)c3)c(F)c2)c(=O)n(-c2ccc(F)cc2)c1=O [Example 117] | 2.8 nM | 3 nM |

Second part, the compound after the results:

| IC50 (GST-MERTK 578-872) | IC50 (HIS-AXL 473-End) | Compound |
| --- | --- | --- |
| 2.9 nM | 0.7 nM | CC(C)n1cc(C(=O)Nc2ccc(Oc3ccnc(Nc4ccc(C(=O)NS(=O)(=O)C(C)C)cn4)c3)c(F)c2)c(=O)n(-c2ccc(F)cc2)c1=O [Example 96] |
| 1 nM | 0.3 nM | CC(C)n1cc(C(=O)Nc2ccc(Oc3ccnc(Nc4ccc(C(=O)N(C)C)c(N5CCN(S(C)(=O)=O)CC5)n4)c3)c(F)c2)c(=O)n(-c2ccc(F)cc2)c1=O [Example 97, N-{4-[(2-{[5-(Dimethylcarbamoyl)-6-(4-methanesulfonylpiperazin-1-yl)pyridin-2-yl]amino}pyridin-4-yl)oxy]-3-fluorophenyl}-3-(4-fluorophenyl)-2,4-dioxo-1-(propan-2-yl)-1,2,3,4-tetrahydropyrimidine-5-carboxamide] |
| 22 nM | 36 nM | CC(C)n1cc(C(=O)Nc2ccc(Oc3ccnc(Nc4ccc(S(=O)(=O)N(C)C)c(N(C)C)n4)c3)c(F)c2)c(=O)n(-c2ccc(F)cc2)c1=O [Example 98, N-{4-[(2-{[6-(dimethylamino)-N,N-(dimethylsulfamoyl)pyridin-2-yl]amino}pyridin-4-yl)oxy]-3-fluorophenyl}-3-(4-fluorophenyl)-2,4-dioxo-1-(propan-2-yl)-1,2,3,4-tetrahydropyrimidine-5-carboxamide] |
| 6.4 nM | 7.4 nM | CC(C)n1cc(C(=O)Nc2ccc(Oc3ccnc(Nc4ccc(S(=O)(=O)N(C)C)c(N5CCN(S(C)(=O)=O)CC5)n4)c3)c(F)c2)c(=O)n(-c2ccc(F)cc2)c1=O [Example 99, N-{4-[(2-{[5-(dimethylsulfamoyl)-6-(4-methanesulfonylpiperazin-1-yl)pyridin-2-yl]amino}pyridin-4-yl)oxy]-3-fluorophenyl}-3-(4-fluorophenyl)-2,4-dioxo-1-(propan-2-yl)-1,2,3,4-tetrahydropyrimidine-5-carboxamide] |
| 2.1 nM | 3.1 nM | COC(=O)N1CCN(c2nc(Nc3cc(Oc4ccc(NC(=O)c5cn(C(C)C)c(=O)n(-c6ccc(F)cc6)c5=O)cc4F)ccn3)ccc2S(=O)(=O)N(C)C)CC1 [Example 100] |
| 0.5 nM | 0.9 nM | CC(C)n1cc(C(=O)Nc2ccc(Oc3ccnc(Nc4ccnc(N5CCN(S(C)(=O)=O)CC5)n4)c3)c(F)c2)c(=O)n(-c2ccc(F)cc2)c1=O [Example 102, N-{3-fluoro-4-[(2-{[2-(4-methanesulfonylpiperazin-1-yl)pyrimidin-4-yl]amino}pyridin-4-yl)oxy]phenyl}-3-(4-fluorophenyl)-2,4-dioxo-1-(propan-2-yl)-1,2,3,4-tetrahydropyrimidine-5-carboxamide] |
| 0.6 nM | 0.7 nM | CC(C)n1cc(C(=O)Nc2ccc(Oc3ccnc(Nc4ccnc(N5CCCC5)n4)c3)c(F)c2)c(=O)n(-c2ccc(F)cc2)c1=O [Example 103, N-{3-fluoro-4-[(2-{[2-(pyrrolidin-1-yl)pyrimidin-4-yl]amino}pyridin-4-yl)oxy]phenyl}-3-(4-fluorophenyl)-2,4-dioxo-1-(propan-2-yl)-1,2,3,4-tetrahydropyrimidine-5-carboxamide] |
| 1 nM | 1.5 nM | CC(C)n1cc(C(=O)Nc2ccc(Oc3ccnc(Nc4ccc(C#N)c(N5CCN(S(C)(=O)=O)CC5)n4)c3)c(F)c2)c(=O)n(-c2ccc(F)cc2)c1=O [Example 116, N-{4-[(2-{[5-cyano-6-(4-methanesulfonylpiperazin-1-yl)pyridin-2-yl]amino}pyridin-4-yl)oxy]-3-fluorophenyl}-3-(4-fluorophenyl)-2,4-dioxo-1-(propan-2-yl)-1,2,3,4-tetrahydropyrimidine-5-carboxamide] |
| 1.5 nM | 1.4 nM | CC(C)n1cc(C(=O)Nc2ccc(Oc3ccnc(Nc4ccc(C#N)c(N5CC[C@H](O)C5)n4)c3)c(F)c2)c(=O)n(-c2ccc(F)cc2)c1=O [Example 118] |
| 1.5 nM | 4.2 nM | COC(=O)N1CCN(c2nc(Nc3cc(Oc4ccc(NC(=O)c5cn(C(C)C)c(=O)n(-c6ccc(F)cc6)c5=O)cc4F)ccn3)ccc2C#N)CC1 [Example 119] |
| 1.6 nM | 1.1 nM | CC(C)n1cc(C(=O)Nc2ccc(Oc3ccnc(Nc4ccc(C#N)c(N5CCC(O)CC5)n4)c3)c(F)c2)c(=O)n(-c2ccc(F)cc2)c1=O [Example 120] |
| 2.4 nM | 3.9 nM | COC1CCN(c2nc(Nc3cc(Oc4ccc(NC(=O)c5cn(C(C)C)c(=O)n(-c6ccc(F)cc6)c5=O)cc4F)ccn3)ccc2C#N)CC1 [Example 121] |
| 6 nM | 9.8 nM | CC(C)n1cc(C(=O)Nc2ccc(Oc3ccnc(Nc4ccc(C#N)c(N5CCC(O)(C(F)(F)F)CC5)n4)c3)c(F)c2)c(=O)n(-c2ccc(F)cc2)c1=O [Example 122] |
| 1.8 nM | 1.4 nM | CC(C)n1cc(C(=O)Nc2ccc(Oc3ccnc(Nc4ccc(C#N)c(N5CCC(S(C)(=O)=O)CC5)n4)c3)c(F)c2)c(=O)n(-c2ccc(F)cc2)c1=O [Example 123] |
| 2.9 nM | 2 nM | CC(C)n1cc(C(=O)Nc2ccc(Oc3ccnc(Nc4ccc(C#N)c(N5CCC(S(C)(=O)=O)C5)n4)c3)c(F)c2)c(=O)n(-c2ccc(F)cc2)c1=O (stereo not drawn) [Example 124] |
| 2.2 nM | 1.3 nM | CC(C)n1cc(C(=O)Nc2ccc(Oc3ccnc(Nc4ccc(C#N)c(N5CCN(S(C)(=O)=O)[C@H](C)C5)n4)c3)c(F)c2)c(=O)n(-c2ccc(F)cc2)c1=O [Example 125] |
